From patent publication US20100152188A1, “Novel Heterocyclic Compounds” (priority 2005, published 2010)

How the values were obtained:
NCIH460 = experiment: Anti-cancer screen (MTT), NCIH460; assay type: cell-based; settings: Homo sapiens, NCI-H460, 48 hours with compound, tested at 0.01-100 µM
Procedure: (§1) Experimental drugs are screened for anti-cancer activity in three cell lines for their GI50, TGI and LC50 values (using five concentrations for each compound). The cell lines are maintained in DMEM containing 10% fetal bovine serum. 96 well micro titer plates are inoculated with cells in 100 µL for 24 hours at 37° C., 5% CO2, 95% air and 100% relative humidity. 5000 HCT 116 cells/well, 5000 NCIH 460 cells/well and 5000 U251 cells/well are plated. A separate plate with these cell lines is also inoculated to determine cell viability before the addition of the compounds (T0).
(§2) Following 24-hour incubation, experimental drugs are added to the 96 well plates. Each plate contains one of the above cell lines and the following in triplicate: five different concentrations (0.01, 0.1, 1, 10 and 100 µM) of four different compounds, appropriate dilutions of a cytotoxic standard and control (untreated) wells. Compounds are dissolved in DMSO to make 20 mM stock solutions on the day of drug addition and frozen at −20° C. Serial dilutions of these 20 mM stock solutions are made in complete growth medium such that 100 µL of these drug solutions in medium, of final concentrations equaling 0.01, 0.1, 1, 10 and 100 µM can be added to the cells in triplicate. Standard drugs whose anti-cancer activity has been well documented and which are regularly used are doxorubicin and SAHA.
(§3) For T0 measurement, 24 hours after seeding the cells, 10 µL of 3-(4,5-Dimethyl-2-thiazolyl)-2,5-diphenyl-2H-tetrazolium (MTT) solution per well is added and incubation carried out for 3 hours at 37° C., 5% CO2, 95% air and 100% relative humidity, protected from light. Cells incubated with compounds for 48 hours are treated similarly except with the addition of 20 µl MTT solution per well and a subsequent incubation under the same conditions. After 3 hours of MTT incubation, well contents are aspirated carefully followed by addition of 150 µL DMSO per well. Plates are agitated to ensure solution of the formazan crystals in DMSO and absorbance read at 570 nm.
(§4) Percent growth is calculated for each compound's concentration relative to the control and zero measurement wells (T0; viability right before compound addition). If a test well's O.D. value is greater than the T0 measurement for that cell line
(§5) %Growth=(test−zero)/(control−zero)×100
(§6) If a test well's O.D. value is lower than the T0 measurement for that cell line, then,
(§7) %Growth=(test−zero)/zero×100

HCT116 = experiment: Anti-cancer screen (MTT), HCT116; assay type: cell-based; settings: Homo sapiens, HCT-116, 48 hours with compound, tested at 0.01-100 µM
Procedure: as §1, §2, §3, §4, §5, §6, §7

HDAC = HDAC inhibition; assay type: biochemical; settings: for HDAC Inhibition 1 μM: compound at 1 μM; for HDAC Inhibition 10 μM: compound at 10 μM
[1] = system: NCIH460, HCT116, MDAMB-231/U 251; experiment: Anti-cancer screen, mean GI50 over the cell lines; assay type: cell-based; settings: in µM
Procedure: as §1, §2, §3, §4

MDAMB-231/U 251 = experiment: Anti-cancer screen (MTT), MDAMB-231/U 251; assay type: cell-based; settings: for CC50: 48 h, read-out: MDAMB-231/U 251 LC50; for GI50 / IC (TGI): 48 hours with compound, MTT, tested at 0.01-100 µM
Procedure: as §1, §2, §3, §4, §5, §6, §7

Mean GI50 [1]	Compound	GI50 (NCIH460)	IC (TGI) (NCIH460)	LC50 (NCIH460)	GI50 (HCT116)	IC (TGI) (HCT116)	LC50 (concentration giving 50% net cell kill relative to T0) (HCT116)	HDAC Inhibition 1 μM (HDAC)	HDAC Inhibition 10 μM (HDAC)	CC50 (MDAMB-231/U 251)	GI50 (MDAMB-231/U 251)	IC (TGI) (MDAMB-231/U 251)
>100	O=C(CCCCCNC(=O)Cc1csc(NC(=O)OCc2ccncc2)n1)NO [Example 98, Pyridin-4-ylmethyl[4-(2-{[6-(hydroxyamino)-6-oxohexyl]amino}-2-oxoethyl)-1,3-thiazol-2-yl]carbamate]	–	–	–	–	–	–	94.01	129.59	–	–	–
10.67	COC(=O)ON(C)C(=O)c1ccc(CNC(=O)OCc2cccs2)cc1 [Example 85, 2-Thienylmethyl[4-({[(methoxycarbonyl)oxy](methyl)amino}carbonyl)benzyl]carbamate]	–	–	–	–	–	–	3.18	7.89	–	–	–
>100	O=C(NCc1ccc(C(=O)NOCc2ccccc2)cc1)OCc1cccs1 [Example 73, 2-Thienylmethyl(4-{[(benzyloxy)amino]carbonyl}benzyl)carbamate]	–	–	–	–	–	–	6.60	12.42	–	–	–
>100	COC(=O)N(OCc1ccccc1)C(=O)c1ccc(CNC(=O)OCc2cccs2)cc1 [Example 86, 2-Thienylmethyl[4-({(N-benzyloxy)(N-methoxycarbonyl)amino}carbonyl)benzyl]carbamate]	–	–	–	–	–	–	5.98	−10.22	–	–	–

More lines, now with the values behind:

Compound	Mean GI50 [1]	GI50 (NCIH460)	IC (TGI) (NCIH460)	LC50 (NCIH460)	GI50 (HCT116)	IC (TGI) (HCT116)	LC50 (concentration giving 50% net cell kill relative to T0) (HCT116)	HDAC Inhibition 1 μM (HDAC)	HDAC Inhibition 10 μM (HDAC)	CC50 (MDAMB-231/U 251)	GI50 (MDAMB-231/U 251)	IC (TGI) (MDAMB-231/U 251)
CON(C)C(=O)c1ccc(CNC(=O)OCc2cccs2)cc1 [Example 48, 2-Thienylmethyl(4-{[methoxy(methyl)amino]carbonyl}benzyl)carbamate]	1.8	1 µM	31 µM	> 100 µM	4.3 µM	9 µM	65 µM	4.8	1.9	> 100 µM	0.03 µM	57 µM
N#Cc1ccc(NC(=O)Nc2cccc(NC(=O)c3ccc(CNC(=O)OCc4cccs4)cc3)c2)cc1 [Example 105, 2-Thienylmethyl[4-({[3-({[(4-cyanophenyl)amino]carbonyl}amino)phenyl]amino}carbonyl)benzyl]carbamate]	6.73	–	–	–	–	–	–	11.02	12.74	–	–	–
CN(C)C(=O)Cc1csc(NC(=O)OCc2cccnc2)n1 [Example 16, Pyridin-3-ylmethyl{4-[2-(dimethylamino)-2-oxoethyl]-1,3-thiazol-2-yl}carbamate]	14	8 µM	> 100 µM	> 100 µM	> 100 µM	> 100 µM	> 100 µM	–	–	> 100 µM	20 µM	> 100 µM
O=C(NCc1ccc(C(=O)NO)cc1)OCCSc1nc2ccccc2s1 [Example 39, 2-(1,3-Benzothiazol-2-ylthio)ethyl{4-[(hydroxyamino)carbonyl]benzyl}carbamate]	7.3	16 µM	54 µM	82 µM	5.5 µM	10 µM	62 µM	–	–	65 µM	0.4 µM	5 µM
CNC(=O)c1ccc(CNC(=O)OCC2COc3ccccc3O2)cc1 (stereo not drawn) [Example 42, 2,3-Dihydro-1,4-benzodioxin-2-ylmethyl{4-[(methylamino)carbonyl]benzyl}carbamate]	>100	> 100 µM	> 100 µM	> 100 µM	> 100 µM	> 100 µM	> 100 µM	–	–	> 100 µM	0.7 µM	> 100 µM
